The record followed here is ChEMBL document CHEMBL1165847, “Urotensin-II receptor modulators as potential drugs” (J Med Chem, 2010).

Data set [1] in a line: Oral bioavailability in rat. The following applies: in vivo. Type of data set: ADME, organism-based.
Data set [2] deals with Rattus norvegicus. The data set is described as follows: Decrease in urotensin-2-induced temperature of ear pinna in rat ear-flush model at 10 ug/ml, iv for 15 mins. Type of data set: functional, organism-based.
The target in data set [3] is T1, Urotensin-2 receptor (Rattus norvegicus) (UniProt P49684).
T1 sequence (whole entry): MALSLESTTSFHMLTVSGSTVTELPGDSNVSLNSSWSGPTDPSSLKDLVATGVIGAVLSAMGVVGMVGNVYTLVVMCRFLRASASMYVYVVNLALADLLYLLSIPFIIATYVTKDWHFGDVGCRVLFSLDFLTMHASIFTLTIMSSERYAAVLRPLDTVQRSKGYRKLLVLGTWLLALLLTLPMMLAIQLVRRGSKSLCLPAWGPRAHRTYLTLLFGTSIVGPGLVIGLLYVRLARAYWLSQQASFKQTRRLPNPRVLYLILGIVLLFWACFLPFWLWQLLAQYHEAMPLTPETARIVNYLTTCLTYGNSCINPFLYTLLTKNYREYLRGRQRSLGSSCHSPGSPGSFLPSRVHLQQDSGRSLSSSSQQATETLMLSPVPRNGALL
The data set is described as follows: Antagonist activity at rat urotensin 2 receptor expressed in CHO cells assessed as calcium mobilization at 100 nM by FLIPR. It is filed as functional, cell-based.

Data set [4] deals with T2, Urotensin-2 receptor (Rattus norvegicus, UniProt P49684).
T2 sequence (P49684 whole entry): T1 sequence (whole entry)
The data set is described as follows: (§1) Agonist activity at rat urotensin 2 receptor expressed in CHO cells assessed as calcium mobilization at 1000 nM by FLIPR. It is filed as functional, cell-based.

Data set [5] has as its target T3, Urotensin-2 receptor (Homo sapiens, UniProt Q9UKP6).
T3 sequence (Q9UKP6 whole entry): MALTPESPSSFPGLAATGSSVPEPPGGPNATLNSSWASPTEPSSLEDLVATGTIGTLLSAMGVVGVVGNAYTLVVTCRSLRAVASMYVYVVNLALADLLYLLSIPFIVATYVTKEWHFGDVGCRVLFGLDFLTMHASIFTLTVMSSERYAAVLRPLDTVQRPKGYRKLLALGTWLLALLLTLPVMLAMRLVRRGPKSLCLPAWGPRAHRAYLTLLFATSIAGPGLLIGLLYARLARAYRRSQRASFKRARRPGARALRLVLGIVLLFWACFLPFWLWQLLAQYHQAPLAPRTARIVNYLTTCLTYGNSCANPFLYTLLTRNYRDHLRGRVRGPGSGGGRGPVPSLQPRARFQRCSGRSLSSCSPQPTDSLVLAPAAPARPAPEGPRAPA
The data set is described as follows: Binding affinity to human urotensin 2 receptor.

For data set [6], the target named is T2, Urotensin-2 receptor. Put plainly: Displacement of [125I]U2 from rat urotensin 2 receptor expressed in CHO cells. It is filed as cell-based.
Data set [7] concerns the target T3, Urotensin-2 receptor. Put plainly: Agonist activity at human urotensin 2 expressed in CHO cells by FLIPR. It is filed as functional, cell-based.
Data set [8] addresses T2, Urotensin-2 receptor. Put plainly: Agonist activity at rat urotensin 2 receptor expressed in CHO cells assessed as calcium mobilization by FLIPR. Type of data set: functional, cell-based.
For data set [9], the target named is T1, Urotensin-2 receptor (Rattus norvegicus). The description is as §1. It is filed as functional, cell-based.
Data set [10] deals with Aorta. The data set is described as follows: Vasoconstriction activity in spontaneously […] rat thoracic aorta at 30 nM. Type of data set: functional.
The target of data set [11] is T1, Urotensin-2 receptor (Rattus norvegicus). The data set is described as follows: Antagonist activity at rat urotensin 2 receptor expressed in CHO cells assessed as calcium mobilization at 300 nM by FLIPR. Type of data set: functional, cell-based.
Data set [12] has the same target. Put plainly: Agonist activity at rat urotensin 2 receptor expressed in CHO cells assessed as calcium mobilization at 500 nM by FLIPR. Type of data set: functional, cell-based.
Data set [13] has the same target. Put plainly: Antagonist activity at rat urotensin 2 receptor expressed in CHO cells assessed as calcium mobilization at 10000 nM by FLIPR. Type of data set: functional, cell-based.
The target of data set [14] is T2, Urotensin-2 receptor. Put plainly: Antagonist activity at rat urotensin 2 receptor expressed in CHO cells assessed as calcium mobilization by FLIPR. It is filed as functional, cell-based.
The subject of data set [15] is Aorta. Put plainly: Vasorelaxation activity against urotensin-2-induced contraction in isolated rat aorta assessed as restoration of renal blood flow at 10 mg/kg/hr, iv. It is filed as functional, organism-based.
The target in data set [16] is T4, Urotensin-2 receptor (Macaca mulatta, UniProt Q8HYC3).
T4 sequence (Q8HYC3 whole entry): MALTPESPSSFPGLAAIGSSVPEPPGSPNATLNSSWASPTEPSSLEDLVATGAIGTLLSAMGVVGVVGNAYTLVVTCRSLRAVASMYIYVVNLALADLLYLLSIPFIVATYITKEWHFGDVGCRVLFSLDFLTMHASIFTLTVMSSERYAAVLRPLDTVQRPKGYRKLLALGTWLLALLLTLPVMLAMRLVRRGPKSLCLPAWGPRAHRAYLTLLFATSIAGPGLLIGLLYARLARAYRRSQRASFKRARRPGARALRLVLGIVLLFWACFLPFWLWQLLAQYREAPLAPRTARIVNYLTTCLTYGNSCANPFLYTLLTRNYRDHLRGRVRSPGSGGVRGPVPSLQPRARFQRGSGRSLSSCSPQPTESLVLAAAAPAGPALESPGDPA
Put plainly: Binding affinity to monkey urotensin 2 receptor.

Data set [17] concerns the target T5, Urotensin-2 receptor (Mus musculus, UniProt Q8VIH9).
T5 sequence (Q8VIH9 whole entry): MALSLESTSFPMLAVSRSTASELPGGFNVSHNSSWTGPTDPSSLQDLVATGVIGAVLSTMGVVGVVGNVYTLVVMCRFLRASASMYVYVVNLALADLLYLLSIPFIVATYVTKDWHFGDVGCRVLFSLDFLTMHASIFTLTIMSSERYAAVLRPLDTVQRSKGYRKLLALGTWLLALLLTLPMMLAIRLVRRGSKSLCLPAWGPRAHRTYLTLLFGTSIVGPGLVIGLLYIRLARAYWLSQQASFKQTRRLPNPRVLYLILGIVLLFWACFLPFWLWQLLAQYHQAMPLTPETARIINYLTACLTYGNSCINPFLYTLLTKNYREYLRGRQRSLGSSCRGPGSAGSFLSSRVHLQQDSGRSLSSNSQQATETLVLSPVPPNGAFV
The data set is described as follows: Binding affinity to mouse urotensin 2 receptor.

Another data set addresses T6, Urotensin II receptor (Felis catus, UniProt Q533H1).
T6 sequence (Q533H1 whole entry): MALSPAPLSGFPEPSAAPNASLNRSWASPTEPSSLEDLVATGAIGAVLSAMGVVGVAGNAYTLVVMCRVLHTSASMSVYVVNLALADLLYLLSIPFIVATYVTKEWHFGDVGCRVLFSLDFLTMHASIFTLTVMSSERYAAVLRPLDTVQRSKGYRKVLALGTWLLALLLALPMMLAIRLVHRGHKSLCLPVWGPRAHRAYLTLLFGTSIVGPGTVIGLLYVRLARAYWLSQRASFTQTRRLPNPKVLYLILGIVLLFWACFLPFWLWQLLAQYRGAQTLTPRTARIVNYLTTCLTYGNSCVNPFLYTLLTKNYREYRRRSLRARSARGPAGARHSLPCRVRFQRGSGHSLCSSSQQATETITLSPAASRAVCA
The data set is described as follows: Binding affinity to cat urotensin 2 receptor.

Data set [18] has as its system Rattus norvegicus. The data set is described as follows: Plasma concentration in rat at 10 mg/kg, iv. It is filed as ADME, organism-based. Also on record: dose 10 mg/kg, route intravenous. The following applies: in vivo.
Data set [19] has as its target T2, Urotensin-2 receptor. The data set is described as follows: Binding affinity to rat urotensin 2 receptor.
In another data set the test system is Mus musculus. Put plainly: Reduction in atherosclerotic lesion size in Apo-E knockout mouse at 30 mg/kg, po qd for 10 weeks. It is filed as functional. Also on record: scale not given: the % may be the effect or the level left.

Structures can show the parent of a compound that is named as a salt. Active and inactive are the calls of the source. The rule behind the calls is not given here. Where a SMILES comes first, the peptide text is derived from it. Bridges are numbered along the chain shown (N, C = ends). Bounds are passed on as bounds.

Take `CCN1CCN(c2cccc3c2CN([C@@H](CCCNS(=O)(=O)c2cccs2)c2ccc(OC)c(OC)c2)C3=O)CC1`: the bioavailability in data set [1] was determined as 10%. In the data set on Rattus norvegicus [2], the outcome was Active. In [3], the inhibition is 74%.

In the case of `CC(C)[C@H](NC(=O)c1cc2ccccc2s1)C(=O)N[C@H]1CCN(Cc2ccc(OCCCN(C)C)cc2)C1`, the results for the Ki on Urotensin-2 receptor [4] and on Urotensin-2 receptor [5] were 600 nM and 12 nM, respectively.

On to `CN(C)CCCOc1ccc(CN2CC[C@H](NC(=O)c3ccc(Cl)c(Cl)c3)C2)cc1`, for which the Ki on Urotensin-2 receptor [6] was 3.2 nM; at Urotensin-2 receptor [7] it was 250 nM.

Compound `CCN1CCN(c2cccc3c2[C@H]2CCC[C@H](c4ccc(OC)c(OC)c4)N2C3=O)CC1` gave a bioavailability in data set [1] of 35%. For the same compound, the Ki worked out at 6.3 nM at Urotensin-2 receptor [8] and 390 nM at Urotensin-2 receptor [7].

For `COc1cc(Br)c(S(=O)(=O)Nc2ccc(C(F)(F)F)c(O[C@@H]3CCN(C)C3)c2)cc1OC`, the inhibition in data set [3] worked out at 97%.

Consider `CC(=O)N[C@H]1CSSC[C@@H](C(N)=O)NC(=O)[C@H](C)NC(=O)[C@H](CCCCN)NC(=O)[C@H](Cc2c[nH]c3ccccc23)NC(=O)[C@H](Cc2ccccc2)NC1=O` (Ac-CFWKAC-NH2; disulfide 1-6), for which the figures for the Activity (in data set [9]; in the data set on Aorta [10]) were 50% and 0%, respectively. At Urotensin-2 receptor [6], this compound showed a Ki of over 10000 nM.

As for `CC(=O)N[C@@H](Cc1ccccc1)C(=O)N[C@@H](Cc1c[nH]c2ccccc12)C(=O)N[C@@H](CCCCN)C(=O)N[C@@H](Cc1ccc(O)cc1)C(N)=O` (Ac-FWKY-NH2), the outcome in data set [11] was inactive. Moreover, the Activity in data set [12] is 57%. Further, at Urotensin-2 receptor [6] (cho), the Ki was under 10000 nM.

For `CC(C)[C@H](NC(=O)[C@@H]1CSSC[C@H](NC(=O)[C@H](CC(=O)O)NC(=O)[C@H](C)NC(=O)[C@@H](NC(=O)CNC(=O)[C@H](C)N)[C@@H](C)O)C(=O)N[C@@H](Cc2ccccc2)C(=O)N[C@@H](Cc2c[nH]c3ccccc23)C(=O)N[C@@H](CCCCN)C(=O)N[C@@H](Cc2ccc(O)cc2)C(=O)N1)C(=O)O` (H-AGTADCFWKYCV-OH; disulfide 6-11), at Urotensin-2 receptor [8], the EC50 came to 0.17 nM. The inhibition constant (Ki) on Urotensin-2 receptor [6] came to 0.19 nM. Moreover, the Activity in the data set with Aorta [10] worked out at 91%.

Take `CC(C)[C@H](NC(=O)[C@@H]1CSSC[C@H](NC(=O)[C@H](CC(N)=O)NC(=O)[C@H](C)N)C(=O)N[C@@H](Cc2ccccc2)C(=O)N[C@@H](C)C(=O)N[C@@H](CCCCN)C(=O)N[C@@H](Cc2ccc(O)cc2)C(=O)N1)C(=O)O` (H-ANCFAKYCV-OH; disulfide 3-8): the result in data set [13] was inactive.

Regarding `CC(C)[C@H](NC(=O)[C@@H]1CSSC[C@H](NC(=O)[C@H](CC(N)=O)NC(=O)[C@H](C)N)C(=O)N[C@@H](Cc2ccccc2)C(=O)N[C@@H](Cc2c[nH]c3ccccc23)C(=O)N[C@@H](C)C(=O)N[C@@H](Cc2ccc(O)cc2)C(=O)N1)C(=O)O` (H-ANCFWAYCV-OH; disulfide 3-8), in data set [13], the result was inactive.

Consider `CC(C)[C@H](NC(=O)[C@@H]1CSSC[C@H](NC(=O)[C@H](CC(N)=O)NC(=O)[C@H](C)N)C(=O)N[C@@H](Cc2ccccc2)C(=O)N[C@@H](Cc2c[nH]c3ccccc23)C(=O)N[C@@H](CCCCN)C(=O)N[C@@H](C)C(=O)N1)C(=O)O` (H-ANCFWKACV-OH; disulfide 3-8), for which the result in data set [13] was inactive. Also, the Activity in [9] was found to be 67%.

Consider `Cc1cc(NC(=O)NCCN2CCC(O)(Cc3ccccc3)CC2)c2ccccc2n1` [PALOSURAN SULFATE], for which the Ki is over 1000 nM at Urotensin-2 receptor [14]; 5 nM at Urotensin-2 receptor [5]; 4 nM at Urotensin-2 receptor [16]; over 1000 nM at Urotensin-2 receptor [17]; over 1000 nM on Urotensin II receptor. On Urotensin-2 receptor [5], this compound showed an IC50 of 3.6 nM. The outcome in the data set on Aorta [15] was Active. The same compound displayed a concentration in the data set with Rattus norvegicus [18] of 5 µM.

Take `CN(C)CCOc1cc(NS(=O)(=O)c2c(Cl)cc(C(F)(F)F)cc2Cl)ccc1Cl` [SB611812]: the bioavailability in data set [1] stood at 100%. The compound also yielded a Ki at Urotensin-2 receptor [19] of 121 nM. Further, in the data set on Mus musculus, the Activity was determined as 64%.

Ac-SFWKYS-NH2: the EC50 on Urotensin-2 receptor [8] is under 500 nM. For the same compound, in [9], the Activity came out at 50%. In [11], the result was inactive. In addition, the Ki at Urotensin-2 receptor [6] (cho) is under 10000 nM.
